The source made the active and inactive calls. The calls are words filed in the database; no cut-off is given here.
Experiments:
Mus musculus [1] = species: Mus musculus; test: Antidiabetic activity in KK-Ay diabetic mouse model assessed as mean fasting blood glucose level at 1.1 mg added daily to normal chow pellets for 10 weeks (reference value: 18 +/- 1.2 mmol/L); assay type: functional
Mus musculus [2] = species: Mus musculus; test: Antidiabetic activity in KK-Ay diabetic mouse model assessed as reduction in plasma glucagon levels at 1.1 mg added daily to normal chow pellets for 10 weeks relative to control by radioimmunoassay; assay type: functional; parameters: scale not given: the % may be the effect or the level left
Mus musculus [3] = species: Mus musculus; test: Antidiabetic activity in KK-Ay diabetic mouse model assessed as increase in insulin levels in plasma at 0.4 mg added daily to normal chow pellets for 10 weeks by radioimmunoassay; assay type: functional, organism-based
Mus musculus [4] = species: Mus musculus; test: Antidiabetic activity in KK-Ay diabetic mouse model assessed as increase in HDL levels at 0.4 to 1.1 mg added daily to normal chow pellets for 10 weeks by colorimetric analysis; assay type: functional, organism-based
Mus musculus [5] = species: Mus musculus; test: Antidiabetic activity in KK-Ay diabetic mouse model assessed as effect on total cholesterol level at 0.14 to 1.1 mg added daily to normal chow pellets for 10 weeks by colorimetric analysis; assay type: functional, organism-based
Mus musculus [6] = species: Mus musculus; test: Induction of […] glucose-stimulated insulin secretion in pancreatic islets isolated from KK-Ay diabetic mouse model at 1.1 mg added daily to normal chow pellets for 10 weeks followed by glucose stimulation of isolated pancreatic islets for 1 hr by radioimmunoassay relative to control; assay type: functional
Mus musculus [7] = species: Mus musculus; test: Induction of […] glucose-stimulated insulin secretion in pancreatic islets isolated from KK-Ay diabetic mouse model at 0.4 mg added daily to normal chow pellets for 10 weeks followed by glucose stimulation of isolated pancreatic islets for 1 hr by radioimmunoassay relative to control; assay type: functional
Mus musculus [8] = species: Mus musculus; test: Effect on LXRalpha mRNA expression levels in adipose tissue of KK-Ay diabetic mouse model at 0.4 to 1.1 mg added daily to normal chow pellets for 10 weeks by qRT-PCR analysis; assay type: functional, organism-based
Mus musculus [9] = species: Mus musculus; test: Effect on Hprt1 mRNA expression levels in adipose tissue of KK-Ay diabetic mouse model at 0.4 to 1.1 mg added daily to normal chow pellets for 10 weeks by qRT-PCR analysis; assay type: functional, organism-based
Mus musculus [10] = species: Mus musculus; test: Effect on Gcgr mRNA expression levels in adipose tissue of KK-Ay diabetic mouse model at 0.4 to 1.1 mg added daily to normal chow pellets for 10 weeks by qRT-PCR analysis; assay type: functional, organism-based
Mus musculus [11] = species: Mus musculus; test: Effect on FABP4 mRNA expression levels in adipose tissue of KK-Ay diabetic mouse model at 0.4 to 1.1 mg added daily to normal chow pellets for 10 weeks by qRT-PCR analysis; assay type: functional, organism-based
Mus musculus [12] = species: Mus musculus; test: Effect on AMPKalpha2 mRNA expression levels in adipose tissue of KK-Ay diabetic mouse model at 0.4 to 1.1 mg added daily to normal chow pellets for 10 weeks by qRT-PCR analysis; assay type: functional, organism-based
Mus musculus [13] = species: Mus musculus; test: Effect on Acaca mRNA expression levels in adipose tissue of KK-Ay diabetic mouse model at 0.4 to 1.1 mg added daily to normal chow pellets for 10 weeks by qRT-PCR analysis; assay type: functional, organism-based
Mus musculus [14] = species: Mus musculus; test: Effect on Pi3K mRNA expression levels in muscle of KK-Ay diabetic mouse model at 0.4 to 1.1 mg added daily to normal chow pellets for 10 weeks by qRT-PCR analysis; assay type: functional, organism-based
Mus musculus [15] = species: Mus musculus; test: Effect on Lipc mRNA expression levels in muscle of KK-Ay diabetic mouse model at 0.4 to 1.1 mg added daily to normal chow pellets for 10 weeks by qRT-PCR analysis; assay type: functional, organism-based
Mus musculus [16] = species: Mus musculus; test: Effect on Gcgr mRNA expression levels in muscle of KK-Ay diabetic mouse model at 0.4 to 1.1 mg added daily to normal chow pellets for 10 weeks by qRT-PCR analysis; assay type: functional, organism-based
Mus musculus [17] = species: Mus musculus; test: Effect on G6PD mRNA expression levels in muscle of KK-Ay diabetic mouse model at 0.4 to 1.1 mg added daily to normal chow pellets for 10 weeks by qRT-PCR analysis; assay type: functional, organism-based
Mus musculus [18] = species: Mus musculus; test: Effect on FABP4 mRNA expression levels in muscle of KK-Ay diabetic mouse model at 0.4 to 1.1 mg added daily to normal chow pellets for 10 weeks by qRT-PCR analysis; assay type: functional, organism-based
Mus musculus [19] = species: Mus musculus; test: Effect on Acaca mRNA expression levels in muscle of KK-Ay diabetic mouse model at 0.4 to 1.1 mg added daily to normal chow pellets for 10 weeks by qRT-PCR analysis; assay type: functional, organism-based
Mus musculus [20] = species: Mus musculus; test: Effect on PPARgamma mRNA expression levels in liver of KK-Ay diabetic mouse model at 0.4 to 1.1 mg added daily to normal chow pellets for 10 weeks by qRT-PCR analysis; assay type: functional, organism-based
Mus musculus [21] = species: Mus musculus; test: Effect on PKCdelta mRNA expression levels in liver of KK-Ay diabetic mouse model at 0.4 to 1.1 mg added daily to normal chow pellets for 10 weeks by qRT-PCR analysis; assay type: functional, organism-based
Mus musculus [22] = species: Mus musculus; test: Effect on Mtor mRNA expression levels in liver of KK-Ay diabetic mouse model at 0.4 to 1.1 mg added daily to normal chow pellets for 10 weeks by qRT-PCR analysis; assay type: functional, organism-based
Mus musculus [23] = species: Mus musculus; test: Effect on IRS2 mRNA expression levels in liver of KK-Ay diabetic mouse model at 0.4 to 1.1 mg added daily to normal chow pellets for 10 weeks by qRT-PCR analysis; assay type: functional, organism-based
Mus musculus [24] = species: Mus musculus; test: Effect on GYS2 mRNA expression levels in liver of KK-Ay diabetic mouse model at 0.4 to 1.1 mg added daily to normal chow pellets for 10 weeks by qRT-PCR analysis; assay type: functional, organism-based
Mus musculus [25] = species: Mus musculus; test: Effect on GLUT2 mRNA expression levels in liver of KK-Ay diabetic mouse model at 0.4 to 1.1 mg added daily to normal chow pellets for 10 weeks by qRT-PCR analysis; assay type: functional, organism-based
Mus musculus [26] = species: Mus musculus; test: Effect on G6PD mRNA expression levels in liver of KK-Ay diabetic mouse model at 0.4 to 1.1 mg added daily to normal chow pellets for 10 weeks by qRT-PCR analysis; assay type: functional, organism-based
Mus musculus [27] = species: Mus musculus; test: Effect on FABP4 mRNA expression levels in liver of KK-Ay diabetic mouse model at 0.4 to 1.1 mg added daily to normal chow pellets for 10 weeks by qRT-PCR analysis; assay type: functional, organism-based
Mus musculus [28] = species: Mus musculus; test: Effect on CD36 mRNA expression levels in liver of KK-Ay diabetic mouse model at 0.4 to 1.1 mg added daily to normal chow pellets for 10 weeks by qRT-PCR analysis; assay type: functional, organism-based
Mus musculus [29] = species: Mus musculus; test: Effect on Adipor1 mRNA expression levels in liver of KK-Ay diabetic mouse model at 0.4 to 1.1 mg added daily to normal chow pellets for 10 weeks by qRT-PCR analysis; assay type: functional, organism-based
Mus musculus [30] = species: Mus musculus; test: Effect on PPARgamma mRNA expression levels in adipose tissue of KK-Ay diabetic mouse model at 0.4 to 1.1 mg added daily to normal chow pellets for 10 weeks by qRT-PCR analysis; assay type: functional, organism-based
Mus musculus [31] = species: Mus musculus; test: Effect on Sirt1 mRNA expression levels in adipose tissue of KK-Ay diabetic mouse model at 0.4 to 1.1 mg added daily to normal chow pellets for 10 weeks by qRT-PCR analysis; assay type: functional, organism-based
Mus musculus [32] = species: Mus musculus; test: Effect on SOD2 mRNA expression levels in adipose tissue of KK-Ay diabetic mouse model at 0.4 to 1.1 mg added daily to normal chow pellets for 10 weeks by qRT-PCR analysis; assay type: functional, organism-based

For `C[C@@]12CCc3occc3[C@H]1CC[C@@]13C[C@H](CC[C@H]12)[C@@](O)(CO)C3`, the Activity (Mus musculus [1]) was 12.9 mmol/L, the Activity (Mus musculus [2]) was 20% and the Activity (Mus musculus [3]) was “inactive”. For the same compound, the Activity (Mus musculus [4]) was “inactive”, the Activity (Mus musculus [5]) was “inactive” and the Activity (Mus musculus [6]) was 75%. The Activity (Mus musculus [7]) was 87%, the Activity (Mus musculus [8]) was “inactive” and the Activity (Mus musculus [9]) was “inactive”. The Activity (Mus musculus [10]) was “inactive”, the Activity (Mus musculus [11]) was “inactive” and the Activity (Mus musculus [12]) was “inactive”. The Activity (Mus musculus [13]) was “inactive”, the Activity (Mus musculus [14]) was “inactive” and the Activity (Mus musculus [15]) was “inactive”. For the same compound, the Activity (Mus musculus [16]) was “inactive”, the Activity (Mus musculus [17]) was “inactive” and the Activity (Mus musculus [18]) was “inactive”. The Activity (Mus musculus [19]) was “inactive”, the Activity (Mus musculus [20]) was “inactive” and the Activity (Mus musculus [21]) was “inactive”. The Activity (Mus musculus [22]) was “inactive”, the Activity (Mus musculus [23]) was “inactive” and the Activity (Mus musculus [24]) was “inactive”. The Activity (Mus musculus [25]) was “inactive”, the Activity (Mus musculus [26]) was “inactive” and the Activity (Mus musculus [27]) was “inactive”. For the same compound, the Activity (Mus musculus [28]) was “inactive”, the Activity (Mus musculus [29]) was “inactive” and the Activity (Mus musculus [30]) was “inactive”. The Activity (Mus musculus [31]) was “inactive” and the Activity (Mus musculus [32]) was “inactive”.
